Values after ≈ are worked out from the molar mass of the structure shown.
Tests used:
[1] = Solubility of the compound in FaSSIF measured after 4 hrs; assay type: physicochemical
[2] = Unbound fraction in rat blood; assay type: ADME, tissue-based
[3] = In vivo inhibition of LRRK2 in Han-Wistar rat assessed as reduction in Ser935 phosphorylation in kidney at 10 to 100 mg/kg, po by Western blot analysis; assay type: functional; parameters: scale not given: the % may be the effect or the level left; conditions: dose 10-100 mg/kg
[4] = biological target: Serine/threonine-protein kinase A-Raf (Homo sapiens) (UniProt P10398); assay: Inhibition of ARAF (unknown origin) assessed as residual activity assessed as residual activity at 1 uM relative to control
[5] = biological target: Aurora kinase A (Homo sapiens) (UniProt O14965); assay: Inhibition of wild-type human partial length AURKA (E122 to K401 residues) expressed in mammalian expression system assessed as residual activity at 1 uM by Kinomescan method relative to control
[6] = biological target: Calcium/calmodulin-dependent protein kinase type II subunit delta (Homo sapiens) (UniProt Q13557); assay: Inhibition of wild-type human partial length CAMK2D (M1 to E329 residues) expressed in bacterial expression system assessed as residual activity at 1 uM by Kinomescan method relative to control
[7] = biological target: CDK1/Cyclin A (Homo sapiens) (UniProt P06493+P20248); assay: Inhibition of wild-type human full length CDK1 (M1 to M297 residues) /Cyclin A expressed in mammalian expression system assessed as residual activity at 1 uM by Kinomescan method relative to control
[8] = biological target: CDK4/Cyclin D3 (Homo sapiens) (UniProt P11802+P30281); assay: Inhibition of wild-type human full length CDK4/cyclinD3 (M1 to E303 residues) expressed in mammalian expression system assessed as residual activity at 1 uM by Kinomescan method relative to control
[9] = biological target: Fibroblast growth factor receptor 1 (Homo sapiens) (UniProt P11362); assay: Inhibition of wild-type human partial length FGFR1 (P357 to V669 residues) expressed in bacterial expression system assessed as residual activity at 1 uM by Kinomescan method relative to control
[10] = biological target: Tyrosine-protein kinase Fyn (Homo sapiens) (UniProt P06241); assay: Inhibition of wild-type human partial length FYN (T243 to L534 residues) expressed in bacterial expression system assessed as residual activity at 1 uM by Kinomescan method relative to control
[11] = biological target: Tyrosine-protein kinase HCK (Homo sapiens) (UniProt P08631); assay: Inhibition of wild-type human full length HCK (M22 to P526 residues) expressed in bacterial expression system assessed as residual activity at 1 uM by Kinomescan method relative to control
[12] = biological target: Insulin-like growth factor 1 receptor (Homo sapiens) (UniProt P08069); assay: Inhibition of wild-type human partial length IGF1R (L972 to D1294 residues) expressed in bacterial expression system assessed as residual activity at 1 uM by Kinomescan method relative to control
[13] = biological target: Interleukin-1 receptor-associated kinase 1 (Homo sapiens) (UniProt P51617); assay: Inhibition of wild-type human partial length IRAK1 (R194 to S712 residues) expressed in mammalian expression system assessed as residual activity at 1 uM by Kinomescan method relative to control
[14] = biological target: Ribosomal protein S6 kinase alpha-4 (Homo sapiens) (UniProt O75676); assay: Inhibition of wild-type human partial length N-terminal RPS6KA4 kinase domain 1 expressed in bacterial expression system assessed as residual activity at 1 uM by Kinomescan method relative to control
[15] = biological target: Dual specificity mitogen-activated protein kinase kinase 2 (Homo sapiens) (UniProt P36507); assay: Inhibition of wild-type human full length MEK2 (M1 to V400 residues) expressed in mammalian expression system assessed as residual activity at 1 uM by Kinomescan method relative to control
[16] = biological target: Phosphorylase b kinase gamma catalytic chain, liver/testis isoform (Homo sapiens) (UniProt P15735); assay: Inhibition of wild-type human partial length PHKG2 (M1 to W300 residues) expressed in bacterial expression system assessed as residual activity at 1 uM by Kinomescan method relative to control
[17] = biological target: Dual serine/threonine and tyrosine protein kinase (Homo sapiens) (UniProt Q6XUX3); assay: Inhibition of wild-type human full length RIPK5 (M1 to T929 residues) expressed in mammalian expression system assessed as residual activity at 1 uM by Kinomescan method relative to control
[18] = biological target: NUAK family SNF1-like kinase 2 (Homo sapiens) (UniProt Q9H093); assay: Inhibition of wild-type human partial length SNARK (P22 to A333 residues) expressed in mammalian expression system assessed as residual activity at 1 uM by Kinomescan method relative to control
[19] = biological target: Serine/threonine-protein kinase 16 (Homo sapiens) (UniProt O75716); assay: Inhibition of wild-type human partial length STK16 (G11 to I305 residues) expressed in bacterial expression system assessed as residual activity at 1 uM by Kinomescan method relative to control
[20] = biological target: Tyrosine-protein kinase Tec (Homo sapiens) (UniProt P42680); assay: Inhibition of wild-type human partial length TEC (L341 to D620 residues) expressed in bacterial expression system assessed as residual activity at 1 uM by Kinomescan method relative to control
[21] = biological target: Angiopoietin-1 receptor (Homo sapiens) (UniProt Q02763); assay: Inhibition of wild-type human partial length TIE2 (N804 to T1112 residues) expressed in bacterial expression system assessed as residual activity at 1 uM by Kinomescan method relative to control
[22] = biological target: Testis-specific serine/threonine-protein kinase 2 (Homo sapiens) (UniProt Q96PF2); assay: Inhibition of TSSK2 (unknown origin) assessed as residual activity at 1 uM by Kinomescan method relative to control
[23] = biological target: Cyclin-Y/Cyclin-dependent kinase 16 (Homo sapiens) (UniProt Q00536+Q8ND76); assay: Inhibition of CDK16/Cyclin Y (unknown origin) assessed as residual activity at 1 uM by Kinomescan method relative to control; assay type: protein-complex assay
[24] = biological target: Rhodopsin kinase GRK1 (Homo sapiens) (UniProt Q15835); assay: Inhibition of wild-type human full length GRK1 (M1 to S563 residues) expressed in mammalian expression system assessed as residual activity at 1 uM by Kinomescan method relative to control
[25] = biological target: Myosin light chain kinase (Homo sapiens) (UniProt Q32MK0); assay: Inhibition of MYLK3 (unknown origin) assessed as residual activity at 1 uM by Kinomescan method relative to control
[26] = biological target: Serine/threonine-protein kinase 32B (Homo sapiens) (UniProt Q9NY57); assay: Inhibition of wild-type human full length YANK2 (M1 to S414 residues) expressed in bacterial expression system assessed as residual activity at 1 uM by Kinomescan method relative to control
[27] = biological target: Serine/threonine-protein kinase VRK2 (Homo sapiens) (UniProt Q86Y07); assay: Inhibition of wild-type human partial length VRK2 (M1 to T336 residues) expressed in mammalian expression system assessed as residual activity at 1 uM by Kinomescan method relative to control
[28] = biological target: 3-phosphoinositide-dependent protein kinase 1 (Homo sapiens) (UniProt O15530); assay: Inhibition of PDK1 (unknown origin) assessed as residual activity at 1 uM by Kinomescan method relative to control

Sequence of Serine/threonine-protein kinase 32B (Homo sapiens) (Q9NY57 whole entry, the tested form may be a part): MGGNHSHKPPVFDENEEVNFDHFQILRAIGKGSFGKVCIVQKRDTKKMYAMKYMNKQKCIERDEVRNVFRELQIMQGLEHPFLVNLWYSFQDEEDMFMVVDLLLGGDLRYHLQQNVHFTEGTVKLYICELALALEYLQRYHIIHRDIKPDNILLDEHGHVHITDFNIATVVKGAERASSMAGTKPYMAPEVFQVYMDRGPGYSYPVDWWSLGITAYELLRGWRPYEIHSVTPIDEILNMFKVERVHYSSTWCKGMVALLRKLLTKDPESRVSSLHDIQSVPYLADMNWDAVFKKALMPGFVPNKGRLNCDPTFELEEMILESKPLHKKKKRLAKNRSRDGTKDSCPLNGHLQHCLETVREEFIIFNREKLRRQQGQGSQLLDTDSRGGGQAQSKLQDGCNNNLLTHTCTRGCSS
Sequence of Dual serine/threonine and tyrosine protein kinase (Homo sapiens) (Q6XUX3 whole entry, the tested form may be a part): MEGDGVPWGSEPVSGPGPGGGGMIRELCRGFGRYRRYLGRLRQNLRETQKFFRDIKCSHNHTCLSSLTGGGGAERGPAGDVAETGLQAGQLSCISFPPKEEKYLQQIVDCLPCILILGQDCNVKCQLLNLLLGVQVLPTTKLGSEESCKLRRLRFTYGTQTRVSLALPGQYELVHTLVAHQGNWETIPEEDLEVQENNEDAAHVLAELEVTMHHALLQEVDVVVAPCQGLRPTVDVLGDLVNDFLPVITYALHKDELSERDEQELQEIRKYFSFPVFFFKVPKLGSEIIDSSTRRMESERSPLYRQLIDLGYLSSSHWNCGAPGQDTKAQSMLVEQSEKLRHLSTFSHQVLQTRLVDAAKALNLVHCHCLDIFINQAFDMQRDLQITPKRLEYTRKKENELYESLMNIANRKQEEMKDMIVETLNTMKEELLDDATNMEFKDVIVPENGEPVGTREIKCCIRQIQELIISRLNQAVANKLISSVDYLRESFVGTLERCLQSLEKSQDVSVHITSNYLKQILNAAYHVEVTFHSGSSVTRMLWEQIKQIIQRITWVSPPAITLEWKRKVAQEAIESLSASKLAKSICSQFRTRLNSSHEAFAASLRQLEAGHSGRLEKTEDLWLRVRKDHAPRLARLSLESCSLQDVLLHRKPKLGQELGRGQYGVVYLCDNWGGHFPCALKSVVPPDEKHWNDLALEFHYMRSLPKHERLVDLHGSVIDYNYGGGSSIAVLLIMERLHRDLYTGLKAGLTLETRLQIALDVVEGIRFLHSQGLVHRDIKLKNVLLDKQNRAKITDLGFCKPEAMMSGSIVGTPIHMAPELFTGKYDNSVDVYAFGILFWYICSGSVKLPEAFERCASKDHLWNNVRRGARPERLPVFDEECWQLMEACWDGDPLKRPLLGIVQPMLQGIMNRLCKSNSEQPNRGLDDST
Sequence of Fibroblast growth factor receptor 1 (Homo sapiens) (P11362 22-822 limits assumed): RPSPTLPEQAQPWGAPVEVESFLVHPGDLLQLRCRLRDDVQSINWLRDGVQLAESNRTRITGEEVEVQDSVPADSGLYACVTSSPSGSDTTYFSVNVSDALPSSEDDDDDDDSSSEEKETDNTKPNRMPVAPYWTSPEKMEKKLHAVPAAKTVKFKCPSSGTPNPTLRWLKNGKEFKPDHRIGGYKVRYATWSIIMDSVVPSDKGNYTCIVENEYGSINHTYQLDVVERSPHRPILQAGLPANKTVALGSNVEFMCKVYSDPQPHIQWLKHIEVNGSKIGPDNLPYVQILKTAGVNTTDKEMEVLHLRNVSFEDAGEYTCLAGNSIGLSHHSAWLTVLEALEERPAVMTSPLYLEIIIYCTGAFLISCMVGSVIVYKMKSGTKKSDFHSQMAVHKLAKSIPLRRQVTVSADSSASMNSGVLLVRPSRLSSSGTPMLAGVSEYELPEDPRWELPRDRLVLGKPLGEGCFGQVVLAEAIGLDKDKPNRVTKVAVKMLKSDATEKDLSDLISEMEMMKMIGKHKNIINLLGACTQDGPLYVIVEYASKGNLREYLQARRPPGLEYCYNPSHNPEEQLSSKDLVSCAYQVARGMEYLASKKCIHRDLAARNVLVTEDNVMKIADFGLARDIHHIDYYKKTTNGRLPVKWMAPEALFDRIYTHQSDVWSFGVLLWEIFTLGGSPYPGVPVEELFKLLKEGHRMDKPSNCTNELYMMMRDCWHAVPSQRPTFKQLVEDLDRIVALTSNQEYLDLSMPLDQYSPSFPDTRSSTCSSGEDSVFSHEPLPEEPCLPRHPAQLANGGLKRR
Sequence of Angiopoietin-1 receptor (Homo sapiens) (Q02763 whole entry, the tested form may be a part): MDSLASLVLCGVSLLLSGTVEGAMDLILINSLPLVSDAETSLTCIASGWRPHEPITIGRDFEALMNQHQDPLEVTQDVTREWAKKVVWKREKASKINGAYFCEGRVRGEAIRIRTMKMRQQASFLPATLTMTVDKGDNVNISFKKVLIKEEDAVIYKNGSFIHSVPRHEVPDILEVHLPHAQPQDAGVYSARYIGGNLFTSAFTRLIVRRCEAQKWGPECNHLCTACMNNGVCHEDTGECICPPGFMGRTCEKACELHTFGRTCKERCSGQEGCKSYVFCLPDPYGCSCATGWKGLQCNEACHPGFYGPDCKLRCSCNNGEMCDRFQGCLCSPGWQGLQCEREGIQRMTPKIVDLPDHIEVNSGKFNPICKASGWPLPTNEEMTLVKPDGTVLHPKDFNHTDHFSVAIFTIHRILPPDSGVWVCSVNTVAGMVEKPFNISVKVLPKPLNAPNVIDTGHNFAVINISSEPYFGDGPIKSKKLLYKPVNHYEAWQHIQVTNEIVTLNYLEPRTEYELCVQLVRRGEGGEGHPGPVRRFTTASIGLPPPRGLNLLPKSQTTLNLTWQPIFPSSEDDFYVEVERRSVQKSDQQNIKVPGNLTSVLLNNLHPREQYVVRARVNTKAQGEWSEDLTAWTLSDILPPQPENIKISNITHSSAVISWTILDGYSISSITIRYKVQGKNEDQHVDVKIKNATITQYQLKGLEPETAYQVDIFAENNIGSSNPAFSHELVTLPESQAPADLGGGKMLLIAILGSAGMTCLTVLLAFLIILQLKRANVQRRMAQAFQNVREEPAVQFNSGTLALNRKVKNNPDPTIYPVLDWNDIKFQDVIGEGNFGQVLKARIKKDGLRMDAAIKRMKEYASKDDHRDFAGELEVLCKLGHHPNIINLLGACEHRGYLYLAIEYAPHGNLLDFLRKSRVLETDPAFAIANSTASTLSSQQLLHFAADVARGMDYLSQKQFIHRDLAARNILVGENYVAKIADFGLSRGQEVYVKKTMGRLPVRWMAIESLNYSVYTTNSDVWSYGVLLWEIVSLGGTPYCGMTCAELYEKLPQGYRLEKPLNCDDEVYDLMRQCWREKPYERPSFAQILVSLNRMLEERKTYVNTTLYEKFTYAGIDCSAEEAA
Sequence of Rhodopsin kinase GRK1 (Homo sapiens) (Q15835 whole entry, the tested form may be a part): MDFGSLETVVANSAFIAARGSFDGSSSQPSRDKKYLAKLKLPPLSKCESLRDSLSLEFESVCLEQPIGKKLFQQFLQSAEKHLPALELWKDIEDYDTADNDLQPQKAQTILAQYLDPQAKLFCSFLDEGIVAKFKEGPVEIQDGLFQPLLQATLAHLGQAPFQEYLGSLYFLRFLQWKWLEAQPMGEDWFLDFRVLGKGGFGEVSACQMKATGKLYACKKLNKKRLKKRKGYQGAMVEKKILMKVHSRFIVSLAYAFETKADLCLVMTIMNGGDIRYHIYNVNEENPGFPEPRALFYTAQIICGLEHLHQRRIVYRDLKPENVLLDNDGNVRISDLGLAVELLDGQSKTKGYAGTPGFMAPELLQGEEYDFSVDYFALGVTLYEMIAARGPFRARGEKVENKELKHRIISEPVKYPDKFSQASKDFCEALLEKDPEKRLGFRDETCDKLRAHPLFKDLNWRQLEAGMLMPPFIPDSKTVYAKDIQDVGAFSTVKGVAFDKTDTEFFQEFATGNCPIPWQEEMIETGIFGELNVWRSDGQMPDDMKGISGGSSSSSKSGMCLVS
Sequence of NUAK family SNF1-like kinase 2 (Homo sapiens) (Q9H093 whole entry, the tested form may be a part): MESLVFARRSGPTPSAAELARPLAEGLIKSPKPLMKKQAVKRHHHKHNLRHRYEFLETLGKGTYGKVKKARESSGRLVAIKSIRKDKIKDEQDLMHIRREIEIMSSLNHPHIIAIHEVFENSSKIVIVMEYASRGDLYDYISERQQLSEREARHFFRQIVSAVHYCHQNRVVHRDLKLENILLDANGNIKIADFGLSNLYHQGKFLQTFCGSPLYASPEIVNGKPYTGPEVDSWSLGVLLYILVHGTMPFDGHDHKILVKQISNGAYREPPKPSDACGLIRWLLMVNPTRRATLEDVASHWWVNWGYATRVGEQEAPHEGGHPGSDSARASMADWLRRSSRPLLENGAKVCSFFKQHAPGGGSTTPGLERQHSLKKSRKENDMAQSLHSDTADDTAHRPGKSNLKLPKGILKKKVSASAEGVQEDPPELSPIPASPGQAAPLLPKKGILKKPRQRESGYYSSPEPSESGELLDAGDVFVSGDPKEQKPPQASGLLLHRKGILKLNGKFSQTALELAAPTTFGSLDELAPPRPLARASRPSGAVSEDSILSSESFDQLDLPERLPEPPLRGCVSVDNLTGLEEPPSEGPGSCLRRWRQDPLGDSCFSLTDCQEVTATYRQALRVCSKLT
Sequence of Calcium/calmodulin-dependent protein kinase type II subunit delta (Homo sapiens) (Q13557 whole entry, the tested form may be a part): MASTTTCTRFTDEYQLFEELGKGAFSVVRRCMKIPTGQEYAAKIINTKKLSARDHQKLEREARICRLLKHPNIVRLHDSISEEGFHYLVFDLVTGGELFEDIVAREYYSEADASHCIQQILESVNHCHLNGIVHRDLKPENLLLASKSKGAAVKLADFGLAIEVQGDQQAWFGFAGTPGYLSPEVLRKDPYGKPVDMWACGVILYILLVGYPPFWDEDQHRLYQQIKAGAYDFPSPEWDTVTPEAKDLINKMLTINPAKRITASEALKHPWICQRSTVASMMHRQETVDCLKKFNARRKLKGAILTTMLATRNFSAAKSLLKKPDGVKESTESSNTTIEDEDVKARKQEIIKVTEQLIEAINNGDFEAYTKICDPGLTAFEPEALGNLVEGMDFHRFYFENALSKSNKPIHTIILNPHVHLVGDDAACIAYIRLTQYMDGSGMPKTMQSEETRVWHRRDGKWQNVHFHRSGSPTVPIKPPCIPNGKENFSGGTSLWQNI

CCOc1nc(Nc2ccc(C(=O)N3CCOCC3)cc2OC)nc2[nH]ccc12
solubility at 4 h [1]: 127 µg/mL (≈ 320 µM) | fraction unbound [2]: 0.032 | Activity [3]: 100% | Activity [4]: 95.9% | Activity [5]: 94.8% | Activity [6]: 86.3% | Activity [7]: 91.4% | Activity [8]: 92.8% | Activity [9]: 90.7% | Activity [10]: 109% | Activity [11]: 87.2% | Activity [12]: 45.4% | Activity [13]: 105% | Activity [14]: 109% | Activity [15]: 94.5% | Activity [16]: 90.6% | Activity [17]: 111% | Activity [18]: 98.5% | Activity [19]: 98.7% | Activity [20]: 99.3% | Activity [21]: 108% | Activity [22]: 20.9% | Activity [23]: 105% | Activity [24]: 95.2% | Activity [25]: 96.9% | Activity [26]: 100% | Activity [27]: 102% | Activity [28]: 93.1%
